Like-named read-outs stand apart in the source and are kept apart here.
Biological target: T1, human CCR7 (Homo sapiens, UniProt P32248)
T1 construct: expressed in transfected cells
T1 sequence (P32248 25-378): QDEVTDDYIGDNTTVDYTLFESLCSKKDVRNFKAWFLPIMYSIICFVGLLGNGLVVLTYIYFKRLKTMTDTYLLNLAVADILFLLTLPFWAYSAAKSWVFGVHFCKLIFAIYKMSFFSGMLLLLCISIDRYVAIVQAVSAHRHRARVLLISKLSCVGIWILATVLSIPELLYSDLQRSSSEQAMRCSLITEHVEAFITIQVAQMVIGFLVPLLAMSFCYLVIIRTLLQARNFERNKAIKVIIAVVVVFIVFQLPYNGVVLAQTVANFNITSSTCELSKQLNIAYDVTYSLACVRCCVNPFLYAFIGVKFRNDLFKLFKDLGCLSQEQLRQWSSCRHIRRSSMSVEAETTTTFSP
Test: CCL19-induced calcium mobilization assay, U87.CD4 cells expressing CCR7
Assay type: cell-based
Description: U87.CD4 cells that stably express either human CCR7, CXCR2, CCR5 or CXCR4 were seeded (20,000 cells/well) in gelatin-coated black-walled polystyrene 96-well plates with clear bottom and incubated overnight at 37°C and 5% CO2. […] Culture medium was removed, and cells were incubated for 45 min at room temperature in the dark. […] Exactly the same protocol was used to record calcium responses in Chinese hamster ovary (CHO)-K1 cells, upon stimulation with adenosine triphosphate (ATP, purchased from Sigma).

[1] = CCL19 induced calcium signaling, read-out: IC50 [μM] block CCL19 induced calcium signaling
[2] = classification as decoy or active on CCR7
[3] = CCL19-induced calcium signaling, read-out: IC50 [μM] block CCL19 induced calcium signaling
[4] = classification of tested compounds as decoy or active

| Structure (SMILES) | IC50 [1] | Decoy – 0 Active – 1 [2] | IC50 [3] | Decoy – 0 Active – 1 [4] | IC50 |
| --- | --- | --- | --- | --- | --- |
| Cc1cccnc1[C@H](N[C@H]1CCN(CC(F)(F)F)C1=O)C(C)C [C138, Cc1cccnc1[C@H]([NH2+][C@H]1CCN(CC(F)(F)F)C1=O)C(C)C] |  |  | > 50 µM | 0 |  |
| COCCN(Cc1cccs1)C(=O)N[C@@H](C)c1ccc(C)o1 [C141, COCCN(Cc1cccs1)C(=O)N[C@@H](C)c1ccc(C)o1] |  |  | > 50 µM | 0 |  |
| COc1ccc(S(=O)(=O)N(CC(=O)NCc2ccccn2)Cc2ccccc2)cc1 [C259, COc1ccc(cc1)S(=O)(=O)N(Cc2ccccc2)CC(=O)NCc3ccccn3] | > 50 µM | 0 |  |  |  |
| O=C1CCC(C(=O)NC(c2ccc(F)cc2)C(F)(F)F)N1 (stereo not drawn) [C204, O=C1CCC(C(=O)NC(c2ccc(F)cc2)C(F)(F)F)N1] | > 50 µM | 0 |  |  |  |
| CC(C)[C@@H](Nc1nccc(CCC(F)(F)F)n1)c1nccn1C [C146, CC(C)[C@@H](Nc1nccc(CCC(F)(F)F)n1)c1nccn1C] |  |  | > 50 µM | 0 |  |
| Cc1cccc(C)c1NC(=O)c1cc(S(N)(=O)=O)c(Cl)cc1O [C179, Cc1cccc(C)c1NC(=O)c1cc(S(N)(=O)=O)c(Cl)cc1O] | > 50 µM | 0 |  |  |  |
| CNC(=O)[C@H](NC1=NS(=O)(=O)c2ccccc21)C(C)C [C157, CNC(=O)[C@H](NC1=NS(=O)(=O)c2ccccc21)C(C)C] |  |  | > 50 µM | 0 |  |
| FC(F)(F)c1cccc(Cn2cnc(NC(=S)NCCc3ccccc3)n2)c1 [C027, FC(F)(F)c1cccc(Cn2cnc(NC(=S)NCCc3ccccc3)n2)c1] |  |  | > 30 µM | 0 |  |
| CCNC(=O)CNc1ccc(C)c(C(=O)N(C)C)c1 [C072, CCNC(=O)CNc1ccc(C)c(C(=O)N(C)C)c1] |  |  | > 10 µM | 0 |  |
| O=S(=O)(NC(c1ccccc1)c1ccccn1)c1ccc2c(c1)OCCCO2 (stereo not drawn) [C252, c1ccc(cc1)C(c2ccccn2)NS(=O)(=O)c3ccc4c(c3)OCCCO4] | > 50 µM | 0 |  |  |  |
| COc1ccc(S(=O)(=O)N2CC(C(=O)Nc3ccccc3)Oc3ccccc32)cc1 (stereo not drawn) [C265, COc1ccc(cc1)S(=O)(=O)N2CC(Oc3c2cccc3)C(=O)Nc4ccccc4] | > 50 µM | 0 |  |  |  |
| O=c1c(Nc2cc(C(F)(F)F)cc(C(F)(F)F)c2)c(Nc2cc(C(F)(F)F)cc(C(F)(F)F)c2)c1=O [C018, O=C1C(NC2=CC(C(F)(F)F)=CC(C(F)(F)F)=C2)=C(NC3=CC(C(F)(F)F)=CC(C(F)(F)F)=C3)C1=O] |  |  | > 50 µM | 0 |  |
| CN(C)[C@H]1CCCC[C@@H]1Nc1c(NCc2cc(C(F)(F)F)cc(C(F)(F)F)c2)c(=O)c1=O [C020, O=C1C(N[C@H]2CCCC[C@@H]2N(C)C)=C(NCC3=CC(C(F)(F)F)=CC(C(F)(F)F)=C3)C1=O] |  |  | > 50 µM | 0 |  |
| CC(=O)N1CCC2(CC1)CC(C(=O)O)N(C(=O)c1ccc(C)c3ccccc13)C2 (stereo not drawn) [C212, CC(=O)N1CCC2(CC1)CC(C(=O)[O-])N(C(=O)c1ccc(C)c3ccccc13)C2] | > 50 µM | 0 |  |  |  |
| CCCC1(C(=O)O)CCN(C(=O)c2cccc(C)c2OC)CC1O (stereo not drawn) [C207, CCCC1(C(=O)[O-])CCN(C(=O)c2cccc(C)c2OC)CC1O] | > 50 µM | 0 |  |  |  |
| C[C@@H](NC(=O)c1nnc(-c2ccc(S(=O)(=O)N(C)C)cc2)o1)c1ccccn1 [C092, C[C@@H](NC(=O)c1nnc(-c2ccc(S(=O)(=O)N(C)C)cc2)o1)c1ccccn1] |  |  | > 50 µM | 0 |  |

| Structure (SMILES) | IC50 [1] | Decoy – 0 Active – 1 [2] | IC50 [3] | Decoy – 0 Active – 1 [4] | IC50 |
| --- | --- | --- | --- | --- | --- |
| Cc1ccc(NCC(=O)NCc2ccco2)cc1C(=O)N(C)C [C057, Cc1ccc(NCC(=O)NCc2ccco2)cc1C(=O)N(C)C] |  |  | > 10 µM | 0 |  |
| COc1ccc(S(=O)(=O)N(CC(=O)N2CCCC2)c2ccc(Cl)cc2)cc1 [C263, COc1ccc(cc1)S(=O)(=O)N(CC(=O)N2CCCC2)c3ccc(cc3)Cl] | > 50 µM | 0 |  |  |  |
| CCc1cccc(NC(=S)NNC(=O)c2cccc([N+](=O)[O-])c2)c1 [C033, CCc1cccc(NC(=S)NNC(=O)c2cccc(c2)[N+]([O-])=O)c1] |  |  | > 30 µM | 0 |  |
| Cc1cnn(C[C@@H]2CCCN2C(=O)[C@H](C(C)C)n2cncn2)c1 [C143, Cc1cnn(C[C@@H]2CCCN2C(=O)[C@H](C(C)C)n2cncn2)c1] |  |  | > 50 µM | 0 |  |
| O=C(CCC1(C(=O)O)CCC(=O)NC1)NCc1ccccc1 (stereo not drawn) [C216, O=C(CCC1(C(=O)[O-])CCC(=O)NC1)NCc1ccccc1] | > 50 µM | 0 |  |  |  |
| COc1ccc(CC(C)(O)CNC(=O)NCc2cccc3ccccc23)cc1 (stereo not drawn) [C192, COc1ccc(CC(C)(O)CNC(=O)NCc2cccc3ccccc23)cc1] | > 50 µM | 0 |  |  |  |
| CC(C)[C@@H]1OCCC[C@@H]1Nc1cc(N2CC[C@H](OCc3ccccn3)C2)ncn1 [C084, CC(C)[C@@H]1OCCC[C@@H]1Nc1cc(N2CC[C@H](OCc3ccccn3)C2)ncn1] |  |  | > 50 µM | 0 |  |
| O=C1NC[C@H](C(=O)N(Cc2ccco2)C2CC2)N1 [C151, O=C1NC[C@H](C(=O)N(Cc2ccco2)C2CC2)N1] |  |  | > 50 µM | 0 |  |
| Cc1ccc(S(=O)(=O)N(CC(O)CN2CCCCC2)c2ccccc2)cc1 (stereo not drawn) [C244, Cc1ccc(cc1)S(=O)(=O)N(CC(C[NH+]2CCCCC2)O)c3ccccc3] | > 50 µM | 0 |  |  |  |
| O=C(Nc1ccc(Cl)cc1Cl)NC(Cc1ccc(O)cc1)C(=O)O (stereo not drawn) [C184, O=C(Nc1ccc(Cl)cc1Cl)NC(Cc1ccc(O)cc1)C(=O)[O-]] | > 50 µM | 0 |  |  |  |
| Cc1ccc(S(=O)(=O)N(C)c2ccccc2C(=O)NCc2ccco2)cc1 [C240, Cc1ccc(cc1)S(=O)(=O)N(C)c2ccccc2C(=O)NCc3ccco3] | > 50 µM | 0 |  |  |  |
| CNC(=O)c1cccc(NC(=O)N[C@H](C)Cc2ccc(C)s2)c1C [C115, CNC(=O)c1cccc(NC(=O)N[C@H](C)Cc2ccc(C)s2)c1C] |  |  |  | 0 | > 50 µM |
| COC(=O)c1ccc([C@H]2CC(=O)Nc3c2cnn3Cc2ccco2)cc1 [C158, COC(=O)c1ccc([C@H]2CC(=O)Nc3c2cnn3Cc2ccco2)cc1] |  |  | > 50 µM | 0 |  |
| COC(=O)c1sccc1Nc1c(NCc2ccc(Cl)cc2)c(=O)c1=O [C009, COC(=O)c1sccc1Nc1c(NCc2ccc(Cl)cc2)c(=O)c1=O] |  |  | > 50 µM | 0 |  |
| CCOC(=O)NC(=S)Nc1cc(C)nc(C)n1 [C046, CC1=NC(NC(NC(OCC)=O)=S)=CC(C)=N1] |  |  | > 30 µM | 0 |  |

Now from value to compound, other results behind:

| IC50 [1] | Decoy – 0 Active – 1 [2] | IC50 [3] | Decoy – 0 Active – 1 [4] | Structure (SMILES) | IC50 |
| --- | --- | --- | --- | --- | --- |
| > 50 µM | 0 |  |  | CCC(NS(=O)(=O)c1ccc(C)cc1)c1ccccc1OCC(=O)NC (stereo not drawn) [C249, CCC(c1ccccc1OCC(=O)NC)NS(=O)(=O)c2ccc(cc2)C] |  |
|  |  | > 50 µM | 0 | O=c1c(NCC2COc3ccccc3O2)c(N2CCSCC2)c1=O (stereo not drawn) [C003, O=c1c(NCC2COc3ccccc3O2)c(N2CCSCC2)c1=O] |  |
| > 50 µM | 0 |  |  | O=C1CC(C(=O)N2CCCC2c2cccs2)CN1c1cccc2ccccc12 (stereo not drawn) [C230, O=C1CC(C(=O)N2CCCC2c2cccs2)CN1c1cccc2ccccc12] |  |
| > 50 µM | 0 |  |  | O=C(O)c1nc[nH]c1C(=O)NC(c1ccccc1)c1ccco1 (stereo not drawn) [C190, O=C([O-])c1nc[nH]c1C(=O)NC(c1ccccc1)c1ccco1] |  |
| > 50 µM | 0 |  |  | O=c1[nH]c(NCC(O)c2ccc3ccccc3c2)nc2ccccc12 (stereo not drawn) [C219, O=c1[nH]c(NCC(O)c2ccc3ccccc3c2)nc2ccccc12] |  |
| > 50 µM | 0 |  |  | O=C(NC1CC(C(=O)O)c2ccccc21)C1CCCN(C(=O)N2CCCC2)C1 (stereo not drawn) [C197, O=C(NC1CC(C(=O)[O-])c2ccccc21)C1CCCN(C(=O)N2CCCC2)C1] |  |
| > 50 µM | 0 |  |  | CC(=O)N1CCCCC1CC(=O)NC1(C)CCc2ccccc2C1 (stereo not drawn) [C193, CC(=O)N1CCCCC1CC(=O)NC1(C)CCc2ccccc2C1] |  |
| > 50 µM | 0 |  |  | O=C(NC1CCC(C(=O)N2CCCCC2)C1)NC1C2Cc3cc(F)ccc3C21 (stereo not drawn) [C227, O=C(NC1CCC(C(=O)N2CCCCC2)C1)NC1C2Cc3cc(F)ccc3C21] |  |
| > 50 µM | 0 |  |  | O=C(COc1ccccc1O)NCc1ccccc1Cl [C174, O=C(COc1ccccc1O)NCc1ccccc1Cl] |  |
| > 50 µM | 0 |  |  | Cc1ccc(C(=O)NC2CCC(=O)NC2C)cc1N1CCOCC1 (stereo not drawn) [C211, Cc1ccc(C(=O)NC2CCC(=O)NC2C)cc1N1CCOCC1] |  |
| > 50 µM | 0 |  |  | O=S(=O)(NCC(c1ccco1)N1CCc2ccccc21)c1ccc2c(c1)OCCO2 (stereo not drawn) [C238, c1ccc2c(c1)CCN2C(CNS(=O)(=O)c3ccc4c(c3)OCCO4)c5ccco5] |  |
|  |  | > 30 µM | 0 | Cc1ccnc(NC(=S)NC(=O)c2cccc3ccccc23)c1 [C032, Cc1ccnc(NC(=S)NC(=O)c2cccc3ccccc23)c1] |  |
| > 50 µM | 0 |  |  | Cc1ccc(C(=O)N2CCC3(CC2)CCC3(C)O)cc1N1CCCC1=O (stereo not drawn) [C224, Cc1ccc(C(=O)N2CCC3(CC2)CCC3(C)O)cc1N1CCCC1=O] |  |
| > 50 µM | 0 |  |  | CC1CN(C(=O)C(C)N2CCC(NS(=O)(=O)c3ccccc3)CC2)CC(C)O1 (stereo not drawn) [C272, CC1CN(CC(O1)C)C(=O)C(C)[NH+]2CCC(CC2)NS(=O)(=O)c3ccccc3] |  |
